# Source: the supplement of paper PMC7806825
# System: McpC ligand-binding domain (Salmonella Typhimurium SL1344)
# Experiment: protein melting temperature (Tm) in presence of compound (degrees C); higher = more thermal stabilisation (possible ligand binding)
# Conditions: Biolog plate: PM01; compound stock concentration: 10-20 mM, 2 uL in 10 uL reaction
row,Compound,protein melting temperature
1,OC[C@H]1O[C@H](O)[C@H](O)[C@@H](O)[C@@H]1O [a-D-Glucose],44.9
2,CC[C@H](O)C(=O)O [a-Hydroxybutyric acid],44.6
3,O=C1CC[C@@H](C(=O)O)O1 [a-Hydroxyglutaric acid-g-Lactone],45.3
4,CCC(=O)C(=O)O [a-Ketobutyric acid],43.9
5,CO[C@H]1O[C@H](CO)[C@H](O)[C@H](O)[C@H]1O [a-Methyl-D-Galactoside],44.9
6,CO[C@@H]1O[C@H](CO)[C@@H](O)[C@H](O)[C@H]1O [b-Methyl-D-Glucoside],44.7

# Other lines, results leading:
row,protein melting temperature,Compound
1,44.9,O=C(O)Cc1cccc(O)c1 [m-Hydroxyphenyl Acetic acid]
2,45.3,O=C(O)Cc1ccc(O)cc1 [p-Hydroxyphenyl Acetic acid]

# Same assay, conditions: Biolog plate: PM02A; compound stock concentration: 10-20 mM, 2 uL in 10 uL reaction
row,Compound,protein melting temperature
1,OC[C@@H](O)[C@H](O)[C@@H](O)CO [Xylitol],44.3
2,CCCC(=O)C(=O)O [a-Keto-Valeric acid],44.3
3,CO[C@H]1O[C@H](CO)[C@@H](O)[C@H](O)[C@H]1O [a-Methyl-D-Glucoside],44.2
4,CO[C@H]1O[C@H](CO)[C@@H](O)[C@H](O)[C@@H]1O [a-Methyl-D-Mannoside],44.9
5,OC[C@H]1O[C@@H]2O[C@H]3[C@H](O)[C@@H](O)[C@@H](O[C@H]4[C@H](O)[C@@H](O)[C@@H](O[C@H]5[C@H](O)[C@@H](O)[C@@H](O[C@H]6[C@H](O)[C@@H](O)[C@@H](O[C@H]7[C@H](O)[C@@H](O)[C@@H](O[C@H]8[C@H](O)[C@@H](O)[C@@H](O[C@H]1[C@H](O)[C@H]2O)O[C@@H]8CO)O[C@@H]7CO)O[C@@H]6CO)O[C@@H]5CO)O[C@@H]4CO)O[C@@H]3CO [b-Cyclodextrin],45.4
6,C[C@@H](O)CC(=O)O [b-Hydroxybutyric acid],44.6
7,CO[C@@H]1O[C@H](CO)[C@H](O)[C@H](O)[C@H]1O [b-Methyl-D-Galactoside],43.7
8,CO[C@@H]1O[C@H](C(=O)O)[C@@H](O)[C@H](O)[C@H]1O [b-Methyl-D-Glucuronic acid],44.1
9,CO[C@@H]1OC[C@@H](O)[C@H](O)[C@H]1O [b-Methyl-D-Xyloside],44.2
10,O=C(O)CCCO [g-Hydroxybutyric acid],44.2

# More lines, now with the values ahead:
row,protein melting temperature,Compound
1,44.4,NCCCC(=O)O [g-Amino-N-Butyric acid]
2,44.7,OC[C@H]1O[C@@H]2O[C@H]3[C@H](O)[C@@H](O)[C@@H](O[C@H]4[C@H](O)[C@@H](O)[C@@H](O[C@H]5[C@H](O)[C@@H](O)[C@@H](O[C@H]6[C@H](O)[C@@H](O)[C@@H](O[C@H]7[C@H](O)[C@@H](O)[C@@H](O[C@H]8[C@H](O)[C@@H](O)[C@@H](O[C@H]9[C@H](O)[C@@H](O)[C@@H](O[C@H]1[C@H](O)[C@H]2O)O[C@@H]9CO)O[C@@H]8CO)O[C@@H]7CO)O[C@@H]6CO)O[C@@H]5CO)O[C@@H]4CO)O[C@@H]3CO [g-Cyclodextrin]
3,43.7,OC[C@@H](O)[C@@H](O)CO [i-Erythritol]

# Same assay, conditions: Biolog plate: PM03B; compound stock concentration: 10-20 mM, 2 uL in 10 uL reaction
row,protein melting temperature,Compound
1,44.4,NCCCCCC(=O)O [e-Amino-N-Caproic acid]
2,44,NCCCC(=O)O [g-Amino-N-Butyric acid]

row,Compound,protein melting temperature
1,NCCc1ccccc1 [b-Phenylethylamine],44.6

# Same assay, conditions: Biolog plate: PM04A; compound stock concentration: 10-20 mM, 2 uL in 10 uL reaction
row,protein melting temperature,Compound
1,44.3,O=P(O)(O)OC(CO)CO [b-Glycerol Phosphate]
2,44.5,Nc1ccc(S(=O)(=O)O)cc1 [p-Aminobenzene Sulfonic acid]

# Same assay, conditions: Biolog plate: PM05; compound stock concentration: 10-20 mM, 2 uL in 10 uL reaction
row,Compound,protein melting temperature
1,OC[C@H]1O[C@H](O)[C@H](O)[C@@H](O)[C@@H]1O [a-D-Glucose],42.9
2,CC[C@H](O)C(=O)O [a-Hydroxybutyric acid],43.7
3,CCC(=O)C(=O)O [a-Ketobutyric acid],44
4,NC(=O)c1ccc[n+](C2OC(COP(=O)([O-])OP(=O)(O)OCC3OC(n4cnc5c(N)ncnc54)C(O)C3O)C(O)C2O)c1 (configuration not stated) [b-Nicotinamide Adenine Dinucleotide],44.8

# Now from value to molecule:
row,protein melting temperature,Compound
1,43.8,NCC(=O)CCC(=O)O [d-Amino-levulinic acid]
2,43.7,Nc1ccc(C(=O)O)cc1 [p-Amino-Benzoic acid]
